Results published in the supplement of paper PMC10307832.

Columns and labels:
Assay in all cases: relative viability (nuclei count vs DMSO), 5 days (fraction); higher = more cells survive
[1] = compound: C1CC2=C(C1)C=C(C=C2)OC3=NC(=C4C(=N3)N(C=N4)CC5=CC=C(C=C5)C6=CC=CC=C6)N[C@@H](CC7=CC=CC=C7)CO [QS11] + CS(=O)(=O)CCNCc1ccc(-c2ccc3ncnc(Nc4ccc(OCc5cccc(F)c5)c(Cl)c4)c3c2)o1 [Lapatinib] (partner 2 µM)
In short: (§1)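 Lung cancer cell lines were pin-tool dosed in 1536-well plates on the day after seeding, with either a lone drug or a fixed anchor-drug dose plus five library-drug doses (not always all listed) in √10 steps. Nuclei were counted on 4× images after 5 days. Relative viability is the ratio of treated-well to vehicle-well nuclei counts, with each value a median of duplicate plates.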

[2] = compound: C1CC2=C(C1)C=C(C=C2)OC3=NC(=C4C(=N3)N(C=N4)CC5=CC=C(C=C5)C6=CC=CC=C6)N[C@@H](CC7=CC=CC=C7)CO [QS11] + CC1(C)CCC(c2ccc(Cl)cc2)=C(CN2CCN(c3ccc(C(=O)NS(=O)(=O)c4ccc(N[C@H](CCN5CCOCC5)CSc5ccccc5)c(S(=O)(=O)C(F)(F)F)c4)cc3)CC2)C1 [Navitoclax] (partner 0.5 µM)
In short: as §1

[3] = compound: CC1=C(C=C(C=C1)NC(=O)C2=CC(=CC=C2)C(C)(C)C#N)NC3=CC4=C(C=C3)N=CN(C4=O)C [AZ628] + C[C@]1(O)C[C@@H](c2nc(-c3ccc4ccc(-c5ccccc5)nc4c3)c3c(N)nccn32)C1 [Linsitinib] (partner 1 µM)
In short: as §1

[4] = compound: CC1=C(C=C(C=C1)NC(=O)C2=CC(=CC=C2)C(C)(C)C#N)NC3=CC4=C(C=C3)N=CN(C4=O)C [AZ628] + CC(C)C[C@H](NC(=O)[C@H](Cc1ccccc1)NC(=O)c1cnccn1)B(O)O [Bortezomib] (partner 0.002 µM)
In short: as §1

Cell Line | relative viability ([1]; first compound 0.08 µM) | relative viability ([1]; first compound 0.253 µM) | relative viability ([1]; first compound 0.8 µM) | relative viability ([1]; first compound 2.53 µM) | relative viability ([1]; first compound 8 µM) | relative viability ([2]; first compound 0.08 µM) | relative viability ([2]; first compound 0.253 µM) | relative viability ([2]; first compound 0.8 µM) | relative viability ([2]; first compound 2.53 µM) | relative viability ([2]; first compound 8 µM) | relative viability ([3]; first compound 0.08 µM) | relative viability ([3]; first compound 0.253 µM) | relative viability ([3]; first compound 0.8 µM) | relative viability ([3]; first compound 2.53 µM) | relative viability ([3]; first compound 8 µM) | relative viability ([4]; first compound 0.08 µM) | relative viability ([4]; first compound 0.253 µM) | relative viability ([4]; first compound 0.8 µM) | relative viability ([4]; first compound 2.53 µM) | relative viability ([4]; first compound 8 µM)
NCI-H1299 | 1.02 | 0.933 | 0.807 | 0.917 | 0.712 | 1.04 | 1.07 | 1.03 | 0.923 | 0.839 | 0.987 | 1.04 | 0.993 | 0.91 | 0.579 | 1.07 | 1.13 | 1.19 | 1.25 | 1.04
NCI-H1355 | 1.08 | 0.792 | 0.688 | 0.997 | 1.07 | 0.876 | 0.869 | 0.791 | 1.03 | 0.881 | 0.846 | 0.93 | 0.765 | 0.806 | 0.655 | 1.21 | 1.03 | 1.12 | 1.12 | 1.1
NCI-H1437 | 0.832 | 0.846 | 0.581 | 0.704 | 0.598 | 1.12 | 1.22 | 0.718 | 0.943 | 0.936 | 0.966 | 0.846 | 0.958 | 0.779 | 0.848 | 0.488 | 0.544 | 0.425 | 0.486 | 0.556
NCI-H1651 | 0.941 | 0.872 | 0.828 | 1.01 | 0.76 | 1.13 | 0.998 | 0.936 | 0.98 | 0.839 | 1.16 | 1.08 | 1.12 | 1.05 | 0.989 | 1.03 | 0.903 | 0.897 | 0.953 | 0.887
NCI-H1666 | 0.607 | 0.398 | 0.542 | 0.578 | 0.42 | 1.04 | 0.868 | 0.932 | 0.55 | 0.472 | 0.809 | 0.57 | 0.551 | 0.753 | 0.553 | 0.812 | 0.715 | 0.567 | 0.621 | 0.705
NCI-H1703 | 0.986 | 1.41 | 1.04 | 0.974 | 1.1 | 1.41 | 1.11 | 1.18 | 1.3 | 1.35 | 0.404 | 0.328 | 0.219 | 0.209 | 0.201 | 0.266 | 0.207 | 0.203 | 0.166 | 0.224
NCI-H1734 | 1.07 | 0.968 | 0.921 | 1.01 | 0.898 | 0.803 | 0.96 | 0.751 | 0.568 | 0.663 | 0.853 | 0.794 | 0.804 | 0.759 | 0.496 | 0.969 | 0.809 | 0.903 | 0.756 | 0.562
NCI-H1755 | 1.12 | 1.02 | 0.608 | 0.953 | 0.833 | 1.03 | 0.994 | 0.531 | 0.898 | 0.834 | 0.993 | 0.956 | 0.941 | 0.937 | 0.883 | 0.947 | 0.878 | 0.909 | 0.942 | 0.818
NCI-H1792 |  | 1.03 | 0.633 | 0.937 | 0.711 |  | 0.744 | 0.5 | 0.6 | 0.479 | 0.583 | 0.54 | 0.435 | 0.48 | 0.339 | 1.06 | 0.925 | 0.857 | 0.923 | 0.555
NCI-H1915 | 1.04 | 1.02 |  | 1.02 | 0.802 | 0.816 | 0.805 |  | 0.865 | 0.868 | 1.08 | 1.11 | 1.07 | 0.85 | 0.683 | 0.939 | 1.02 | 0.771 | 0.598 | 0.716
NCI-H1975 | 0.912 | 0.805 | 0.965 | 1.03 | 1.18 | 1.09 | 1.2 | 1.02 | 1.59 | 1.26 | 0.908 | 0.949 | 0.895 | 0.904 | 0.647 | 0.409 | 0.343 | 0.303 | 0.281 | 0.241
NCI-H1993 | 0.823 | 0.962 | 0.601 | 0.751 | 0.882 | 0.833 | 0.761 | 0.997 | 0.946 | 0.893 | 0.761 | 0.59 | 0.716 | 0.824 | 0.711 | 1.1 | 1.03 | 0.932 | 0.711 | 0.815
NCI-H2009 | 0.983 | 0.884 | 0.634 | 0.855 | 0.728 | 1.13 | 1.19 | 0.972 | 1.02 | 0.981 | 1.06 | 0.973 | 0.724 | 1.05 | 0.358 | 0.939 | 0.881 | 0.65 | 0.689 | 0.295
NCI-H2023 | 0.809 | 0.797 | 0.747 | 0.773 | 0.706 | 1.02 | 1.02 | 0.925 | 1.16 | 1.12 | 0.723 | 0.677 | 0.72 | 0.758 | 0.358 | 1.19 | 1.07 | 1.06 | 0.981 | 0.821
NCI-H2085 | 0.714 | 0.716 | 0.713 | 0.861 | 0.778 | 1.18 | 1.17 | 1.08 | 1.29 | 1.41 | 0.851 | 0.939 | 0.972 | 0.879 | 0.781 | 1.2 | 1.02 | 1.19 | 1.07 | 1.06
